In patent US4755594A, “N^6 -substituted adenosines” (Warner-Lambert Company, priority 1986, dated 1988):

Legend:
[1] = Antihypertensive evaluation (AHP3), aortic blood pressure in conscious rats; assay type: in vivo; details: conscious rat
Excerpt: ANTIHYPERTENSIVE EVALUATION (AHP3)
This test procedure is described in the following paragraphs.
A Method for the Direct Monitoring of Aortic Blood
Pressure and Heart Rate from Conscious Rats
The continuous monitoring of pulsatile blood pressure (BP) from unrestrained conscious rats surgically equipped with polyethylene cannulas was accomplished by means of a computer assisted data capture scheme (CADCS). The basic elements of the methodology are the cannulation procedure and the CADCS.
Rats were anesthetized with Telazol (1:1 tiletamine HCl and zolazepam HCl); 20-40 mg/kg IM and the descending aorta exposed via a midline incision. Cannulas fabricated from polyethylene tubing were inserted into the aorta via an undersized puncture hole below the renal arteries. The puncture hole was made by a 23 G disposable needle with a section of the aorta clamped off above and below the puncture site. The cannulas, consisting of a PE100 (0.86 mm ID) body and a PE50 (0.58 mm ID) tip, were attached to a trocar, inserted through the psoas muscle, and passed subcutaneously along the midline of the back and externalized between the ears. The cannulas were anchored to the psoas muscle and between the scalulae (3-0 green braided suture). The midline incision was closed in two steps (muscle first, skin second) using continuous over-and-over sutures (4-0 chronic). Each rat was then given penicillin 30,000 units subcutaneously (Penicillin G Procaine Sterile Suspension).
The rats were fitted with a harness-spring-swivel assembly designed to protect the cannula and to provide the rat relative freedom of movement. The harnesses were fabricated from nylon hook and loop tape cemented to a metal plate to which spring wires (18-8 stainless steel) were attached to brass swivels. Each polyethylene cannula was channeled through a spring and connected through a swivel to a pressure transducer (Model P23Gb; Statham Instruments; Hato Rey, Puerto Rico) and an infusion pump (Sage model 234-7; Orion Research, Cambridge MA) by means of PE100 tubing. While on test, each rat received a continuous slow infusion of heparinized saline solution (approximately 400 μl or 40 units of heparin per 24 hours period) to prevent clot formation. Additional "flushes" of the cannula with heparinized saline were carried out when the aortic pulse pressure (systolic minus diastolic) was less than 25 mm Hg.
The pulsatile blood pressure and heart rate of each of 32 rats was monitored every minute by means of two in-laboratory microcomputers communicating directly with a data concentrator computer. The data were first stored on the data concentrator disk and then transferred to a magnetic tape for analysis and report generation by the main research computer. The overall scheme involved modulating the primary signal from the pressure transducer, generating the primary data set of the one-minute values for systolic, diastolic, and mean blood pressures and heart rate by the in-lab microcomputer and the storage, analysis, and report generation by the main research computer.
The transducers were connected to analog signal conditioning modules. The modules provided a regulated excitation voltage for the transducers, amplification as required to interface the microprocessors and an active low pass filter to compensate for the pressure wave form distortion produced by the flexible, fluid filled, narrow cannula. The distortion was 22-26 Hz and this provided a reliable estimate of both systolic and diastolic blood pressure.
The microcomputers (one for each of two groups of 16 rats) were connected to the input components through the module interface units, an analog-to-digital converter for the pressure wave form signal and the digital inputs for the dose and event marker switches. The microcomputer controlled the sequential acquisition of data from the modular interface units through an internal synchronous time-of-day clock/time base generator. […]

[2] = Mouse Activity and Screen Test Procedure (MAST): inhibition of spontaneous locomotion; assay type: in vivo, Swiss-Webster male mice; details: IP, 1 h, read-out: Inhibition of motor activity
Excerpt: (§1) The compounds of the invention are new chemical substances which are useful as pharmaceutical agents for the treatment of psychoses. The antipsychotic activity of representative compounds of the invention was established by the Mouse Activity and Screen Test Procedure (MAST) described below. Animals Nine unfasted Swiss-Webster male mice weighing 20-30 g are equally divided into three groups for each drug dose to be tested. That is, data for each dose level was generated by three separate groups of three mice each. Drugs A minimum of three dose levels (10, 30, and 100 mg/kg) are tested for each drug. Treatments are administered intraperitoneally one hour prior to testing. All dosages are calculated as parent compound and given in volumes of 10 ml/kg. Compounds are dissolved or suspended in 0.2% Methocel. Control animals are injected with Methocel. Testing A two part testing procedure is started one hour postinjection. First, the screen test (ST) is performed (see Pharmac. Biochem. Behav. 6, 351-353, 1977). Briefly this test consists of placing mice on individual wire screens which are then rotated 180 degrees at the start of a 60 second observation period. The number of mice falling off the inverted screen is recorded. Immediately following the screen test, the final phase of testing is initiated by placing each group of three mice in one actophotometer (Life Sciences, 22, 1067-1076, 1978). The actophotometer consists of a cylindrical chamber whose center is occupied by another cylinder which contains the illumination for six photocells located on the perimeter of the chamber. Six light-beam interruptions equal one count. Locomotor activity is recorded by computer at ten minute intervals for 60 minutes. Data The data obtained from the screen test are expressed as percent of mice falling off the screen. Data derived from locomotor activity of drug treated mice are compared to the activity of vehicle treated animals and are expressed as percent inhibition of spontaneous locomotion. All percentages reported for inhibition of locomotion (LI) are based upon data accumulated for one hour. Both phases of testing are graded: A=60-100%; C=31-59%; and N=0-30%. An overall dose rating is obtained by the following criteria: […]

[3] = Mouse Activity and Screen Test Procedure (MAST): screen test; assay type: in vivo, Swiss-Webster male mice; details: IP
Excerpt: as §1, with “recorded.” for “recorded. Immediately following the screen test, the final phase of testing is initiated by placing each group of three mice in one actophotometer (Life Sciences, 22, 1067-1076, 1978). The actophotometer consists of a cylindrical chamber whose center is occupied by another cylinder which contains the illumination for six photocells located on the perimeter of the chamber. Six light-beam interruptions equal one count. Locomotor activity is recorded by computer at ten minute intervals for 60 minutes.”

Compound | Maximum BP ↓ MAP ([1]; 1 mg/kg) [%] | Maximum BP ↓ MAP ([1]; 3 mg/kg) [%] | Maximum BP ↓ MAP ([1]; 10 mg/kg) [%] | inhibition in vivo at 0.3 mg/kg [2] [%] | inhibition in vivo at 1 mg/kg [2] [%] | inhibition in vivo at 3 mg/kg [2] [%] | inhibition in vivo at 10 mg/kg [2] [%] | inhibition in vivo at 30 mg/kg [2] [%] | inhibition in vivo at 100 mg/kg ([2]; 100 mg/kg) [%] | Inhibition of screen test failure ([3]; 0.3 mg/kg) [%] | Inhibition of screen test failure ([3]; 1.0 mg/kg) [%] | Inhibition of screen test failure ([3]; 3 mg/kg) [%] | Inhibition of screen test failure ([3]; 10 mg/kg) [%] | Inhibition of screen test failure ([3]; 30 mg/kg) [%] | Inhibition of screen test failure ([3]; 100 mg/kg) [%] | inhibition in vivo at 0.03 mg/kg ([2]; 0.03 mg/kg) [%] | inhibition in vivo at 0.1 mg/kg ([2]; 0.1 mg/kg) [%] | Inhibition of screen test failure ([3]; 0.03 mg/kg) [%] | Inhibition of screen test failure ([3]; 0.1 mg/kg) [%]
OC[C@H]1O[C@@H](n2cnc3c(NCC4(c5ccccc5)CC4)ncnc32)[C@H](O)[C@@H]1O [Example 1, N6-((1-Phenylcyclopropyl)methyl)adenosine] | 13 | 23 | 23 | 43 | 48 | 38 | 92 | 98 | 100 | 11 | 0 | 0 | 0 | 22 | 44 | – | – | – | –
OC[C@H]1O[C@@H](n2cnc3c(NCC4(c5cccc(Cl)c5)CC4)ncnc32)[C@H](O)[C@@H]1O [Example 2, N6-((1-(3-Chlorophenyl)cyclopropyl)methyl)adenosine] | – | – | – | – | – | 19 | 69 | 90 | – | – | – | 11 | 0 | 0 | – | – | – | – | –
OC[C@H]1O[C@@H](n2cnc3c(NCC4(c5cccs5)CC4)ncnc32)[C@H](O)[C@@H]1O [Example 3, N6-((1-Thien-2-ylcyclopropyl)methyl)adenosine] | – | 43 | – | 70 | 85 | 89 | 93 | – | – | 0 | 0 | 0 | 0 | – | – | 17 | 40 | 0 | 0
O[C@@H]1[C@H](O)[C@@H](CCl)O[C@H]1n1cnc2c(NCC3(c4ccccc4)CC3)ncnc21 [Example 5, 5'-Deoxy-5'-chloro-N6-((1-phenylcyclopropyl)methyl)adenosine] | – | – | – | – | – | 16 | 10 | -4 | – | – | – | 11 | 0 | 0 | – | – | – | – | –
O[C@@H]1[C@H](O)[C@@H](CCl)O[C@H]1n1cnc2c(NCC3(c4cccs4)CC3)ncnc21 [Example 6, 5'-Chloro-5'-deoxy-N6-((1-thien-2-ylcyclopropyl)methyl)adenosine] | – | – | – | – | – | 11 | 16 | 51 | – | – | – | 0 | 0 | 0 | – | – | – | – | –
OC[C@H]1O[C@@H](n2cnc3c(NCC4(c5ccccc5)CCC4)ncnc32)[C@H](O)[C@@H]1O [Example 7, N6-((1-Phenylcyclobutyl)methyl)adenosine] | – | – | 32 | – | 5 | 21 | 82 | – | – | – | 0 | 0 | 0 | – | – | – | – | – | –
OC[C@H]1O[C@@H](n2cnc3c(NCC4(c5cccc(Cl)c5)CCC4)ncnc32)[C@H](O)[C@@H]1O [Example 8, N6-((1-(3-Chlorophenyl)cyclobutyl)methyl)adenosine] | – | – | – | – | – | 22 | 35 | 73 | – | – | – | 0 | 0 | 0 | – | – | – | – | –
OC[C@H]1O[C@@H](n2cnc3c(NCC4(c5cccs5)CCC4)ncnc32)[C@H](O)[C@@H]1O [Example 9, N6-((1-Thien-2-ylcyclobutyl)methyl)adenosine] | – | 10 | – | – | – | 43 | 86 | 94 | – | – | – | 0 | 0 | 0 | – | – | – | – | –
OC[C@H]1O[C@@H](n2cnc3c(NCC4(c5ccccc5)CCCC4)ncnc32)[C@H](O)[C@@H]1O [Example 10, N6-((1-Phenylcyclopentyl)methyl)adenosine] | – | – | 10 | – | – | -7 | 12 | 49 | – | – | – | 11 | 0 | 22 | – | – | – | – | –
OC[C@H]1O[C@@H](n2cnc3c(NCC4(c5ccccc5)CCCCC4)ncnc32)[C@H](O)[C@@H]1O [Example 11, N6-((1-Phenylcyclohexyl)methyl)adenosine] | – | – | 5 | – | – | 15 | -10 | 34 | – | – | – | 11 | 0 | 0 | – | – | – | – | –
